Data from PMC6321439, “Structural Elucidation and Cytotoxicity of a New 17-Membered Ring Lactone from Algerian Eryngium campestre” (Molecules, 2018).
Values after ≈ are worked out from the molar mass of the structure shown. Read-outs that look alike come from different tables or passages of the source.

Tests used:
[1] = test system: Trypanosoma brucei rhodesiense, T. cruzi, Plasmodium falciparum and Leishmania donovani axenic and the infected macrophages amastigotes; parameters: method as in PMID 17922552; details: cited from earlier work; for IC50: T. b. rhodesiense, T. cruzi, P. falciparum, L. donovani axenic and infected-macrophage amastigotes, read-out: IC50 on protozoan panel
[2] = test system: T. cruzi trypomastigotes; parameters: method as in PMID 22414103; details: at 100 µg/mL; cited from earlier work
[3] = test system: cruzain; parameters: method as in PMID 22414103; details: cited from earlier work
[4] = test system: all tested cells; assay: Summary over cytotoxicity and antiprotozoal assays; assay type: cell-based; details: read-out: IC50 on all tested cells except Trypanosoma
Procedure: The crude extract and the newly identified pure compound (91.9%), campestrolide, were evaluated in vitro for their cytotoxicity on two mammalian cell lines: normal human fibroblasts (WI38) and cancerous macrophage-like murine cells. Their antiprotozoal activities were also investigated on Trypanosoma brucei brucei (Tbb. strain 427) bloodstream forms and Leishmania mexicana mexicana (Lmm. MHOM/BZ/84/BEL46) promastigotes. The tests were performed using stock solutions prepared in DMSO at 10 mg/mL. For the cytotoxicity assay, the samples were tested in eight serial 1.7-fold dilutions ([…] fresh medium) in the 96-well microtiter plates (concentration range: 0.7–25 µg/mL). The camptothecin (Sigma-Aldrich, St.-Louis, MO, USA) was used as a positive control with 5-fold dilutions (concentration range: 0.00032–25 µg/mL) from a 10 mg/mL DMSO stock solution. For the antiparasitic assays, the samples were tested in eight serial 2-fold dilutions (concentration range: 0.20–25 or 0.10–12 µg/mL on Leishmania and Trypanosoma, respectively). […] The IC50 values were determined using Microsoft Excel and GraphPad Prism 7.0 software (GraphPad, San Diego, CA, USA), based on a nonlinear regression. The selectivity index was calculated in comparison to the WI38 cytotoxicity to assess the therapeutic properties as antiparasitic or anticancer hits.

[5] = Cytotoxicity on WI38 cells; assay type: cell-based; details: human, WI38 normal human fibroblasts, mean ± SD from at least six values
Procedure: (§1) The crude extract and the newly identified pure compound (91.9%), campestrolide, were evaluated in vitro for their cytotoxicity on two mammalian cell lines: normal human fibroblasts (WI38) and cancerous macrophage-like murine cells. Their antiprotozoal activities were also investigated on Trypanosoma brucei brucei (Tbb. strain 427) bloodstream forms and Leishmania mexicana mexicana (Lmm. MHOM/BZ/84/BEL46) promastigotes. The tests were performed using stock solutions prepared in DMSO at 10 mg/mL. For the cytotoxicity assay, the samples were tested in eight serial 1.7-fold dilutions (150 µL transferred into 100 µL fresh medium) in the 96-well microtiter plates (concentration range: 0.7–25 µg/mL). The camptothecin (Sigma-Aldrich, St.-Louis, MO, USA) was used as a positive control with 5-fold dilutions (concentration range: 0.00032–25 µg/mL) from a 10 mg/mL DMSO stock solution. For the antiparasitic assays, the samples were tested in eight serial 2-fold dilutions (concentration range: 0.20–25 or 0.10–12 µg/mL on Leishmania and Trypanosoma, respectively). Suramine sodium and pentamidine isethionate salts (Sigma-Aldrich, St.-Louis, MO, USA) were used as a positive control with 3-fold dilutions (0.0046–10 µg/mL) from a stock solution of 2 mg/mL as well as amphotericin B. A maximum of 0.5% DMSO was previously verified to be non-toxic in all the biological assays. The IC50 values were determined using Microsoft Excel and GraphPad Prism 7.0 software (GraphPad, San Diego, CA, USA), based on a nonlinear regression. The selectivity index was calculated in comparison to the WI38 cytotoxicity to assess the therapeutic properties as antiparasitic or anticancer hits.

[6] = Cytotoxicity / anticancer activity on J774 cells; assay type: cell-based; details: mouse, J774 cancerous macrophage-like murine cells, mean ± SD from at least six values
Procedure: as §1

[7] = test system: Leishmania mexicana mexicana promastigotes; assay: Antileishmanial activity in vitro; assay type: cell-based; details: for IC50: Leishmania mexicana
Procedure: as §1

[8] = test system: Trypanosoma brucei brucei (bloodstream forms); assay: Antitrypanosomal activity in vitro; assay type: cell-based
Procedure: as §1

[9] = parameters: method as in earlier work; details: cited from earlier work
[10] = test system: Trypanosoma brucei brucei; parameters: method as in PMID 22473703; details: cited from earlier work
[11] = read-out: Cytotoxicity IC50 ± SD WI38
[12] = read-out: Cytotoxicity IC50 ± SD WI38 (µM for pure compound)
[13] = read-out: Cytotoxicity IC50 ± SD J774
[14] = read-out: Cytotoxicity IC50 ± SD J774 (µM for pure compound)
[15] = Lmm promastigotes, read-out: Antiparasitic activity IC50 ± SD Lmm
[16] = Lmm promastigotes, read-out: Antiparasitic activity IC50 ± SD Lmm (µM for pure compound)
[17] = Trypanosoma brucei, Tbb bloodstream forms, strain 427, read-out: Antiparasitic activity IC50 ± SD Tbb
[18] = Trypanosoma brucei, Tbb bloodstream forms, strain 427, read-out: Antiparasitic activity IC50 ± SD Tbb (µM for pure compound)

Question: With `C=CC(C#CC#CC(O)CCCCCCCCCCOC(C)=O)OC(C)=O` (centres unmarked) [16-acetoxy-11-hydroxyoctadeca-17-ene-12,14-diynyl ethanoate] as the molecule, how does the IC50 [1] read?
Answer: 100 to 2500 nM

Question: And the “SI compared on L6 rat skeletal myoblasts” value [1]?
Answer: > 10

Question: Which results are given for `C=C1/C=C/[C@H](C(C)C)CC/C(C)=C/CC1` [germacrene D, Germacrene D]?
Answer: growth inhibition of T. cruzi trypomastigotes [2]: 61%; IC50 cruzain [3]: 22.1 µg/mL (≈ 108 µM)

Question: With `C=C[C@@H]1C#CC#CC/C=C\CCCCCCCC(=O)O1` [Compound 33, (Z)-17(R)-vinyloxacycloheptadeca-10-en-13,15-diyn-2-one] as the molecule, how does the IC50 [4] read?
Answer: 12500 to 19500 nM

Question: And the IC50 [5, 11]?
Answer: 5.2 ± 0.24 µg/mL

Question: What about the IC50 [5, 12] of the same molecule?
Answer: 19.2 µM

Question: And the IC50 [6, 13]?
Answer: 4.84 ± 0.1 µg/mL

Question: And the IC50 [6, 14]?
Answer: 17.9 µM

Question: What about the IC50 [7, 15] of the same molecule?
Answer: 3.43 ± 0.02 µg/mL

Question: What about the IC50 [7, 16] of the same molecule?
Answer: 12.7 µM

Question: And the “Selectivity Index IC50 WI38/IC50 Parasite, Lmm” value ([7]; compared to WI38 cytotoxicity)?
Answer: 1.5

Question: What about the “Antiparasitic activity IC50 ± SD Tbb” value ([8]; Tbb bloodstream forms, strain 427) of the same molecule?
Answer: 0.59 ± 0.08 µg/mL

Question: And the IC50 ([8]; Tbb bloodstream forms, strain 427, read-out: Antiparasitic activity IC50 ± SD Tbb (µM for pure compound))?
Answer: 2.17 µM

Question: And the IC50 [8, 17]?
Answer: 0.6 µg/mL

Question: And the IC50 [8, 18]?
Answer: 2.2 µM

Question: What about the “Selectivity Index IC50 WI38/IC50 Parasite, Tbb” value ([8]; compared to WI38 cytotoxicity) of the same molecule?
Answer: 8.9

Question: Which IC50 [7, 15] does the source give for `N=C(N)c1ccc(OCCCCCOc2ccc(C(=N)N)cc2)cc1` [pentamidine, reference compound] here?
Answer: 0.057 ± 0.008 µg/mL

Question: What about the IC50 [7, 16] of the same molecule?
Answer: 0.097 µM

Question: For `C[C@@H]1[C@H](O)[C@@H](C)/C=C/C=C/C=C/C=C/C=C/C=C/C=C/[C@H](O[C@@H]2O[C@H](C)[C@@H](O)[C@H](N)[C@@H]2O)C[C@@H]2O[C@](O)(C[C@@H](O)C[C@@H](O)[C@H](O)CC[C@@H](O)C[C@@H](O)CC(=O)O[C@H]1C)C[C@H](O)[C@H]2C(=O)O` [amphotericin B, reference compound], which IC50 ([7]; read-out: Antiparasitic activity IC50 ± SD Lmm (µM for pure compound)) is on record?
Answer: 0.09 ± 0.06 µM

Question: Which IC50 [8, 17] does the source give for `Cc1ccc(C(=O)Nc2ccc(S(=O)(=O)O)c3cc(S(=O)(=O)O)cc(S(=O)(=O)O)c23)cc1NC(=O)c1cccc(NC(=O)Nc2cccc(C(=O)Nc3cc(C(=O)Nc4ccc(S(=O)(=O)O)c5cc(S(=O)(=O)O)cc(S(=O)(=O)O)c45)ccc3C)c2)c1` [suramine, reference compound] here?
Answer: 0.031 ± 0.012 µg/mL

Question: And the IC50 [8, 18]?
Answer: 0.022 µM

Question: With `CC[C@@]1(O)C(=O)OCc2c1cc1n(c2=O)Cc2cc3ccccc3nc2-1` [camptothecin, reference compound] as the molecule, how does the IC50 [5, 11] read?
Answer: 0.036 ± 0.022 µg/mL

Question: And the IC50 [5, 12]?
Answer: 0.103 µM

Question: What about the IC50 [6, 13] of the same molecule?
Answer: 0.007 ± 0.005 µg/mL

Question: And the IC50 [6, 14]?
Answer: 0.021 µM

Question: For `C=CC(C#CC#CC(O)CCCCCCCCC)OC(C)=O` (centres unmarked) [8-hydroxyheptadeca-1-ene-4,6-diyn-3-yl ethanoate], which IC50 [1] is on record?
Answer: 100 to 2500 nM

Question: And the “SI compared on L6 rat skeletal myoblasts” value [1]?
Answer: > 10

Question: Which “reported log P” value [9] does the source give for `C=C[C@H](O)C#CC#CC/C=C\CCCCCCC` [Falcarinol] here?
Answer: 5.50

Question: And the “SI compared to HeLa cytotoxicity” value ([10]; T. b. brucei compared to HeLa)?
Answer: 858

Question: What about the IC50 [10] of the same molecule?
Answer: 40 nM

Question: And the “IC50 on Trypanosoma brucei brucei” value [10]?
Answer: 0.01 µg/mL (≈ 0.0409 µM)
